Reference: ChEMBL document CHEMBL3885881, “DrugMatrix”

Species: Rattus norvegicus
Experiment: DrugMatrix - Regimen: Daily Repeat
Assay type: toxicity, organism-based, Sprague-Dawley
Set-up: regimen Daily Repeat, gender Male, age 6-8 weeks
Conditions: in vivo, po, route oral GAVAGE, […]; for ABSOLUTE BASOPHIL / ABSOLUTE EOSINOPHIL / ABSOLUTE LYMPHOCYTE / ABSOLUTE MONOCYTE / ABSOLUTE SEGMENTED NEUTROPHIL / BASOPHIL / EOSINOPHIL / ERYTHROCYTE COUNT / HEMATOCRIT / HEMOGLOBIN / LEUKOCYTE COUNT / LYMPHOCYTE / MEAN CORPUSCULAR HEMOGLOBIN / MEAN CORPUSCULAR HEMOGLOBIN CONCENTRATION / MEAN CORPUSCULAR VOLUME / MONOCYTE / NEUTROPHIL / NUCLEATED RED BLOOD CELLS / PLATELET COUNT: tissue Blood; for ALANINE AMINOTRANSFERASE / ALBUMIN / ALKALINE PHOSPHATASE / ASPARTATE AMINOTRANSFERASE / BLOOD UREA NITROGEN / CARBON DIOXIDE / CHLORIDE / CHOLESTEROL / CREATINE PHOSPHOKINASE / CREATININE / GLUCOSE / LACTATE DEHYDROGENASE / LIPASE / PHOSPHORUS / POTASSIUM / SODIUM / TOTAL BILIRUBIN / TOTAL PROTEIN / URIC ACID: tissue Plasma
[1] = 50 mg/kg, 120 h, dose level Low, time 5 day
[2] = 714 mg/kg, 72 h, dose level High, time 3 day
[3] = 714 mg/kg, 120 h, dose level High, time 5 day

SMILES: COC(=O)Nc1nc2ccc(C(=O)c3ccccc3)cc2[nH]1 [MEBENDAZOLE]
- ABSOLUTE BASOPHIL [1]: 0 CELLS/uL
- ABSOLUTE EOSINOPHIL [1]: 0 CELLS/uL
- ABSOLUTE LYMPHOCYTE [1]: 6435.67 CELLS/uL
- ABSOLUTE MONOCYTE [1]: 130 CELLS/uL
- ABSOLUTE SEGMENTED NEUTROPHIL [1]: 501 CELLS/uL
- BASOPHIL [1]: 0%
- EOSINOPHIL [1]: 0%
- ERYTHROCYTE COUNT [1]: 5.5 x10E6/uL
- HEMATOCRIT [1]: 34.07%
- HEMOGLOBIN [1]: 13.2 G/DL
- LEUKOCYTE COUNT [1]: 7.07 x10E3/uL
- LYMPHOCYTE [1]: 91.33%
- MEAN CORPUSCULAR HEMOGLOBIN [1]: 23.93 pg
- MEAN CORPUSCULAR HEMOGLOBIN CONCENTRATION [1]: 38.77 G/DL
- MEAN CORPUSCULAR VOLUME [1]: 61.9 fL
- MONOCYTE [1]: 1.67%
- NEUTROPHIL [1]: 7%
- NUCLEATED RED BLOOD CELLS [1]: 0 /100WBC
- PLATELET COUNT [1]: 727.67 x10E3/uL
- ALANINE AMINOTRANSFERASE [1]: 57.67 u/L
- ALBUMIN [1]: 4.23 G/DL
- ALKALINE PHOSPHATASE [1]: 399 u/L
- ASPARTATE AMINOTRANSFERASE [1]: 84.33 u/L
- BLOOD UREA NITROGEN [1]: 13 mg/dL
- CARBON DIOXIDE [1]: 30.67 mmol/L
- CHLORIDE [1]: 101.67 MEQ/L
- CHOLESTEROL [1]: 64.67 mg/dL
- CREATINE PHOSPHOKINASE [1]: 244 u/L
- CREATININE [1]: 0.17 mg/dL
- GLUCOSE [1]: 149 mg/dL
- LACTATE DEHYDROGENASE [1]: 129.33 u/L
- LIPASE [1]: 9.33 u/L
- PHOSPHORUS [1]: 9.77 mg/dL
- POTASSIUM [1]: 5.24 MEQ/L
- SODIUM [1]: 144.5 MEQ/L
- TOTAL BILIRUBIN [1]: 0.17 mg/dL
- TOTAL PROTEIN [1]: 6.13 G/DL
- URIC ACID [1]: 0.83 mg/dL
- ABSOLUTE BASOPHIL [2]: 0 CELLS/uL
- ABSOLUTE EOSINOPHIL [2]: 0 CELLS/uL
- ABSOLUTE LYMPHOCYTE [2]: 11722 CELLS/uL
- ABSOLUTE MONOCYTE [2]: 64.67 CELLS/uL
- ABSOLUTE SEGMENTED NEUTROPHIL [2]: 713.33 CELLS/uL
- BASOPHIL [2]: 0%
- EOSINOPHIL [2]: 0%
- ERYTHROCYTE COUNT [2]: 5.73 x10E6/uL
- HEMATOCRIT [2]: 36.47%
- HEMOGLOBIN [2]: 14.03 G/DL
- LEUKOCYTE COUNT [2]: 12.5 x10E3/uL
- LYMPHOCYTE [2]: 93%
- MEAN CORPUSCULAR HEMOGLOBIN [2]: 24.53 pg
- MEAN CORPUSCULAR HEMOGLOBIN CONCENTRATION [2]: 38.5 G/DL
- MEAN CORPUSCULAR VOLUME [2]: 63.63 fL
- MONOCYTE [2]: 0.67%
- NEUTROPHIL [2]: 6.33%
- NUCLEATED RED BLOOD CELLS [2]: 0 /100WBC
- PLATELET COUNT [2]: 1226.67 x10E3/uL
- ALANINE AMINOTRANSFERASE [2]: 73 u/L
- ALBUMIN [2]: 4.17 G/DL
- ALKALINE PHOSPHATASE [2]: 458.33 u/L
- ASPARTATE AMINOTRANSFERASE [2]: 86.67 u/L
- BLOOD UREA NITROGEN [2]: 12.33 mg/dL
- CARBON DIOXIDE [2]: 34.33 mmol/L
- CHLORIDE [2]: 99 MEQ/L
- CHOLESTEROL [2]: 68 mg/dL
- CREATINE PHOSPHOKINASE [2]: 464 u/L
- CREATININE [2]: 0.15 mg/dL
- GLUCOSE [2]: 137.67 mg/dL
- LACTATE DEHYDROGENASE [2]: 159.67 u/L
- LIPASE [2]: 10 u/L
- PHOSPHORUS [2]: 11.13 mg/dL
- POTASSIUM [2]: 6.13 MEQ/L
- SODIUM [2]: 144.4 MEQ/L
- TOTAL BILIRUBIN [2]: 0.2 mg/dL
- TOTAL PROTEIN [2]: 6.07 G/DL
- URIC ACID [2]: 0.6 mg/dL
- ABSOLUTE BASOPHIL [3]: 0 CELLS/uL
- ABSOLUTE EOSINOPHIL [3]: 0 CELLS/uL
- ABSOLUTE LYMPHOCYTE [3]: 8770.67 CELLS/uL
- ABSOLUTE MONOCYTE [3]: 141.33 CELLS/uL
- ABSOLUTE SEGMENTED NEUTROPHIL [3]: 488 CELLS/uL
- BASOPHIL [3]: 0%
- EOSINOPHIL [3]: 0%
- ERYTHROCYTE COUNT [3]: 5.57 x10E6/uL
- HEMATOCRIT [3]: 35.9%
- HEMOGLOBIN [3]: 13.67 G/DL
- LEUKOCYTE COUNT [3]: 9.4 x10E3/uL
- LYMPHOCYTE [3]: 93%
- MEAN CORPUSCULAR HEMOGLOBIN [3]: 24.57 pg
- MEAN CORPUSCULAR HEMOGLOBIN CONCENTRATION [3]: 38.1 G/DL
- MEAN CORPUSCULAR VOLUME [3]: 64.5 fL
- MONOCYTE [3]: 1.67%
- NEUTROPHIL [3]: 5.33%
- NUCLEATED RED BLOOD CELLS [3]: 0.33 /100WBC
- PLATELET COUNT [3]: 1199 x10E3/uL
- ALANINE AMINOTRANSFERASE [3]: 60.67 u/L
- ALBUMIN [3]: 4.1 G/DL
- ALKALINE PHOSPHATASE [3]: 481.33 u/L
- ASPARTATE AMINOTRANSFERASE [3]: 90.67 u/L
- BLOOD UREA NITROGEN [3]: 14 mg/dL
- CARBON DIOXIDE [3]: 32.67 mmol/L
- CHLORIDE [3]: 99.67 MEQ/L
- CHOLESTEROL [3]: 65 mg/dL
- CREATINE PHOSPHOKINASE [3]: 401 u/L
- CREATININE [3]: 0.21 mg/dL
- GLUCOSE [3]: 145.33 mg/dL
- LACTATE DEHYDROGENASE [3]: 142.67 u/L
- LIPASE [3]: 11.67 u/L
- PHOSPHORUS [3]: 10.2 mg/dL
- POTASSIUM [3]: 5.58 MEQ/L
- SODIUM [3]: 146.1 MEQ/L
- TOTAL BILIRUBIN [3]: 0.2 mg/dL
- TOTAL PROTEIN [3]: 5.97 G/DL
- URIC ACID [3]: 0.5 mg/dL
